Our source for the inhibition values is patent US8952034B2, “Fused heterocyclic compounds as ion channel modulators” (Gilead Sciences, Inc., priority 2009, dated 2015).

Chain of wild-type human cardiac sodium channel, hNav1.5 (Q14524 whole entry): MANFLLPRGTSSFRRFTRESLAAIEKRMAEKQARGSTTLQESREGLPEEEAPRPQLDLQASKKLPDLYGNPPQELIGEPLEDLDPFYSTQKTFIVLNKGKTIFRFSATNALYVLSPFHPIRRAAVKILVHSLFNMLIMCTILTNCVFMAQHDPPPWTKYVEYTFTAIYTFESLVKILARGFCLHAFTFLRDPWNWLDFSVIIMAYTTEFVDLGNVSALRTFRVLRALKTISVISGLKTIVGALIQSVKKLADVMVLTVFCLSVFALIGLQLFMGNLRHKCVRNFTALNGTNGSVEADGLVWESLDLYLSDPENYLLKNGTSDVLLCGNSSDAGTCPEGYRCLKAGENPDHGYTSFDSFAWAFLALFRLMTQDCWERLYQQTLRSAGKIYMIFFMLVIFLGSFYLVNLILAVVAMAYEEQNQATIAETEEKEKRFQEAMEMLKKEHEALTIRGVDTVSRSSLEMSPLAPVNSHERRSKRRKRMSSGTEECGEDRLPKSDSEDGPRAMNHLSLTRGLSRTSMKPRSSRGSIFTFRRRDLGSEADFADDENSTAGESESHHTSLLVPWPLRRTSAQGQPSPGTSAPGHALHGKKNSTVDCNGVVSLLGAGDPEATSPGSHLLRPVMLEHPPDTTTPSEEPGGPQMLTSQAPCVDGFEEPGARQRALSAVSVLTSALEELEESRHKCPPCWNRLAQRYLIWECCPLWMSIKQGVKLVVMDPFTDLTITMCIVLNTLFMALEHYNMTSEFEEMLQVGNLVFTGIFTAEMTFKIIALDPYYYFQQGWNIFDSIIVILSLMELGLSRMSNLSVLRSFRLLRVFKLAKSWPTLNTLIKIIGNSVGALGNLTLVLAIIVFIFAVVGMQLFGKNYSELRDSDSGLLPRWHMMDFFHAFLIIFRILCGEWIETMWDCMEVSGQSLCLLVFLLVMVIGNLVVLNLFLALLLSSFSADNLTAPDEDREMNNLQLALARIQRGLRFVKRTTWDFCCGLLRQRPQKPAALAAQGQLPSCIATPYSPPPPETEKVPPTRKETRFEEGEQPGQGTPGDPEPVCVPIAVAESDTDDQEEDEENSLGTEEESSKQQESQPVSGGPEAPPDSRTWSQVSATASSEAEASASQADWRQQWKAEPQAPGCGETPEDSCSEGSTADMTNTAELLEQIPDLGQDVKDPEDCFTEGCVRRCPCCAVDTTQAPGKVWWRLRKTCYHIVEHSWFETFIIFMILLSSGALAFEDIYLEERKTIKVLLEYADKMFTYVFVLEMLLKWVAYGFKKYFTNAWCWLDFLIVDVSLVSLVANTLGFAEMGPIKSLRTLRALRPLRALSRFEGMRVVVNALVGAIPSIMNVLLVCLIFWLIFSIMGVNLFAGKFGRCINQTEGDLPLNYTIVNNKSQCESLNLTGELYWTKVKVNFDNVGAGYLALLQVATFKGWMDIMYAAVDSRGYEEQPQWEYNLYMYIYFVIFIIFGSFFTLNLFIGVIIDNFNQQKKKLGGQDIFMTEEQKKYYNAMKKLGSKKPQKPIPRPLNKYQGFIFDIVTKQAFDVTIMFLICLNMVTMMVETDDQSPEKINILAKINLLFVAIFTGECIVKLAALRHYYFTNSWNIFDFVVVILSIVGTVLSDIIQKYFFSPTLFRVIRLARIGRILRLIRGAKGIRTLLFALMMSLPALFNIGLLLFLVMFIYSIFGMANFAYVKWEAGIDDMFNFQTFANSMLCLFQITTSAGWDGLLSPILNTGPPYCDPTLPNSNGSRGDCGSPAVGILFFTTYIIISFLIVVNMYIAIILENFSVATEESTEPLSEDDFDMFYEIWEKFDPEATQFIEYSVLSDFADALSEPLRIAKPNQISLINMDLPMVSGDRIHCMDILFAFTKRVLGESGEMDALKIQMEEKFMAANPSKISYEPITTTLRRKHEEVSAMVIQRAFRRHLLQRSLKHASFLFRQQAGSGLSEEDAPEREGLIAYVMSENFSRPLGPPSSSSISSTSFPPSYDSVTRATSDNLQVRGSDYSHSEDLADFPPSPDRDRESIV

In the first experiment the target is wild-type human cardiac sodium channel, hNav1.5 (Homo sapiens, UniProt Q14524). As to the kind of experiment: Late INa screening assay (automated whole cell patch clamp, PatchXpress). Format: cell-based. Conditions: compound at 1 μM; HEK293 cells expressing hNav1.5; late INa generated with 10 μM Tefluthrin (or 50 nM ATX II); read-out: LateINa_1 uM (percent block of late INa). A digest of the protocol:
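Late sodium current through wild-type human hNav1.5 stably expressed in HEK293 cells (no beta subunits) was recorded by automated whole-cell patch clamp on a PatchXpress 7000A at 24-27° C. Late INa was induced with 10 μM Tefluthrin or 50 nM ATX II. Cells were stepped from −120 mV to −20 mV for 250 ms at 0.1 Hz, and percent block was normalized to current in Na-free extracellular solution.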
(In general: Patch clamp records ionic current or voltage across a cell membrane.)
Take `FC(F)(F)Oc1ccc(-c2ccc3nnnn3c2)cc1` [BHN-98, 6-[4-(trifluoromethoxy)phenyl]tetrazolo[1,5-a]pyridine]: the inhibition at 1 µM worked out at 54.1%.

Consider `CNC(=O)c1cccc(-c2nnc3ccc(-c4ccc(OC(F)(F)F)cc4)cn23)c1` [BHN-99, N-methyl-3-{6-[4-(trifluoromethoxy)phenyl][1,2,4]triazolo[4,3-a]pyridin-3-yl}benzamide], for which the inhibition at 1 µM was 19.6%.

For the compound `FC(F)(F)c1nnc2ccc(-c3ccc(Oc4cccnc4)cc3)cn12` [BHN-100, 6-[4-(pyridin-3-yloxy)phenyl]-3-(trifluoromethyl)[1,2,4]triazolo[4,3-a]pyridine], the inhibition at 1 µM stood at 27.6%.

Consider `CSc1ccc(-c2ccc3cnc(C(F)(F)F)n3c2)cn1` [BHN-101, 6-[6-(methylsulfanyl)pyridin-3-yl]-3-(trifluoromethyl)imidazo[1,5-a]pyridine], for which the inhibition at 1 µM was found to be 32.3%.

For the compound `FC(F)(F)c1nnc2ccc(-c3ccc(OC4CC4)cc3)cn12` [BHN-102, 6-[4-(cyclopropyloxy)phenyl]-3-(trifluoromethyl)[1,2,4]triazolo[4,3-a]pyridine], the inhibition at 1 µM came to 45.5%.

Take `Cc1cc(-c2ccc(OC(F)(F)F)cc2)cn2c(C(F)(F)F)nnc12` [BHN-103, 8-methyl-6-[4-(trifluoromethoxy)phenyl]-3-(trifluoromethyl)[1,2,4]triazolo[4,3-a]pyridine]: the inhibition at 1 µM is 40.7%.

Consider `COc1cc(C(F)(F)F)ccc1-c1ccc2nnc(C(F)(F)F)n2c1` [BHN-105, 6-[2-methoxy-4-(trifluoromethyl)phenyl]-3-(trifluoromethyl)[1,2,4]triazolo[4,3-a]pyridine], for which the inhibition at 1 µM stood at 49.3%.

In the case of `FC(F)(F)c1nnc2ccc(-c3ccc4ccccc4c3)cn12` [BHN-106, 6-(naphthalen-2-yl)-3-(trifluoromethyl)[1,2,4]triazolo[4,3-a]pyridine], the inhibition at 1 µM was 38.2%.

Take `COc1cc(-c2ccc3nnc(C(F)(F)F)n3c2)cc(OC)c1OC` [BHN-107, 3-(trifluoromethyl)-6-(3,4,5-trimethoxyphenyl)[1,2,4]triazolo[4,3-a]pyridine]: the inhibition at 1 µM was 16.5%.

As for `FC(F)(F)Oc1ccc(-c2ccc3nnc(C(F)(F)F)n3c2)c2cccnc12` [BHN-108, 8-(trifluoromethoxy)-5-[3-(trifluoromethyl)[1,2,4]triazolo[4,3-a]pyridin-6-yl]quinoline], the inhibition at 1 µM was determined as 45.7%.

For the compound `Fc1cc(-c2ccc3nnc(C(F)(F)F)n3c2)cc(F)c1Oc1ccccc1` [BHN-109, 6-(3,5-difluoro-4-phenoxyphenyl)-3-(trifluoromethyl)[1,2,4]triazolo[4,3-a]pyridine], the inhibition at 1 µM is 61.8%.

As to `O=[N+]([O-])c1cc(F)ccc1Oc1ccc(-c2ccc3nnc(C(F)(F)F)n3c2)cc1` [BHN-110, 6-[4-(4-fluoro-2-nitrophenoxy)phenyl]-3-(trifluoromethyl)[1,2,4]triazolo[4,3-a]pyridine], the inhibition at 1 µM turned out to be 18.2%.

In the case of `OCC(F)(F)c1nnc2ccc(-c3ccc(Oc4ccccc4)cc3)cn12` [BHN-111, 2,2-difluoro-2-[6-(4-phenoxyphenyl)[1,2,4]triazolo[4,3-a]pyridin-3-yl]ethanol], the inhibition at 1 µM worked out at 29%.

Take `Fc1ccccc1Oc1ccc(-c2ccc3nnc(C(F)(F)F)n3c2)cc1` [BHN-112, 6-[4-(2-fluorophenoxy)phenyl]-3-(trifluoromethyl)[1,2,4]triazolo[4,3-a]pyridine]: the inhibition at 1 µM came out at 32.9%.

Consider `FC(F)(F)c1nnc2ccc(-c3ccc(Oc4ccncc4)cc3)cn12` [BHN-113, 6-[4-(pyridin-4-yloxy)phenyl]-3-(trifluoromethyl)[1,2,4]triazolo[4,3-a]pyridine], for which the inhibition at 1 µM turned out to be 20.1%.

Consider `FC(F)(F)c1nnc2ccc(-c3ccc(Nc4ccccc4)cc3)cn12` [BHN-114, N-phenyl-4-[3-(trifluoromethyl)[1,2,4]triazolo[4,3-a]pyridin-6-yl]aniline], for which the inhibition at 1 µM was found to be 37.4%.

In the case of `CC(=O)Nc1cc(OC(F)(F)F)ccc1-c1ccc2nnc(-c3ccc(OC(F)(F)F)cc3)n2c1` [BHN-116, N-[5-(trifluoromethoxy)-2-{3-[4-(trifluoromethoxy)phenyl][1,2,4]triazolo[4,3-a]pyridin-6-yl}phenyl]acetamide], the inhibition at 1 µM was determined as 16.4%.

Take `N#Cc1nc(C(F)(F)F)n2cc(-c3ccc(OC(F)(F)F)cc3)ccc12` [BHN-117, 6-[4-(trifluoromethoxy)phenyl]-3-(trifluoromethyl)imidazo[1,5-a]pyridine-1-carbonitrile]: the inhibition at 1 µM is 66.3%.

Consider `FC(F)(F)Oc1ccc(-c2ccc3nnc(-c4ccc(OC(F)(F)F)cc4)n3n2)cc1` [BHN-118, 3,6-bis[4-(trifluoromethoxy)phenyl][1,2,4]triazolo[4,3-b]pyridazine], for which the inhibition at 1 µM came to 46.3%.

In the case of `FC(F)(F)c1nnc2ccc(-c3ccc(Sc4ccccc4)cc3)cn12` [BHN-119, 6-[4-(phenylsulfanyl)phenyl]-3-(trifluoromethyl)[1,2,4]triazolo[4,3-a]pyridine], the inhibition at 1 µM is 70.5%.

On to `FC(F)(F)c1nnc2ccc(-c3cccc4ccccc34)cn12` [BHN-120, 6-(naphthalen-1-yl)-3-(trifluoromethyl)[1,2,4]triazolo[4,3-a]pyridine], for which the inhibition at 1 µM is 20.4%.

In the case of `FC(F)(F)c1ccc(-c2ccc3nnc(C(F)(F)F)n3c2)nn1` [BHN-121, 3-(trifluoromethyl)-6-[6-(trifluoromethyl)pyridazin-3-yl][1,2,4]triazolo[4,3-a]pyridine], the inhibition at 1 µM was 21.9%.

In the case of `FC(F)(F)c1ncc(-c2ccc3nnc(C(F)(F)F)n3c2)cn1` [BHN-122, 3-(trifluoromethyl)-6-[2-(trifluoromethyl)pyrimidin-5-yl][1,2,4]triazolo[4,3-a]pyridine], the inhibition at 1 µM worked out at 31.8%.

`FC(F)(F)c1nnc2ccc(-c3ccc(NC(c4ccccc4)C(F)(F)F)cc3)cn12` (centres unmarked) [BHN-123, 4-[3-(trifluoromethyl)[1,2,4]triazolo[4,3-a]pyridin-6-yl]-N-(2,2,2-trifluoro-1-phenylethyl)aniline]: the inhibition at 1 µM amounted to 23.4%.

With `FC(F)(F)Oc1ccc(-c2ccc3nnc(C(F)(F)F)n3c2)c(Br)c1` [BHN-124, 6-[2-bromo-4-(trifluoromethoxy)phenyl]-3-(trifluoromethyl)[1,2,4]triazolo[4,3-a]pyridine], the inhibition at 1 µM came to 82%.

For `OCc1nc(C(F)(F)F)n2cc(-c3ccc(OC(F)(F)F)cc3)ccc12` [BHN-125, {6-[4-(trifluoromethoxy)phenyl]-3-(trifluoromethyl)imidazo[1,5-a]pyridin-1-yl}methanol], the inhibition at 1 µM stood at 33.9%.

`COc1cc(-c2ccc(OC(F)(F)F)cc2)cn2c(C(F)F)nnc12` [BHN-126, 3-(difluoromethyl)-8-methoxy-6-[4-(trifluoromethoxy)phenyl][1,2,4]triazolo[4,3-a]pyridine]: the inhibition at 1 µM was 26.9%.

As to `FC(F)(F)Oc1ccc(-c2ccc3nnc(COCc4ccccc4)n3c2)cc1` [BHN-127, 3-[(benzyloxy)methyl]-6-[4-(trifluoromethoxy)phenyl][1,2,4]triazolo[4,3-a]pyridine], the inhibition at 1 µM came to 93.2%.

Turning to `FC(F)(F)Oc1ccc(-c2ccc3nnc(COCC4CC4)n3c2)cc1` [BHN-128, 3-[(cyclopropylmethoxy)methyl]-6-[4-(trifluoromethoxy)phenyl][1,2,4]triazolo[4,3-a]pyridine], the inhibition at 1 µM is 65.6%.

On to `FC(F)(F)COCc1nnc2ccc(-c3ccc(OC(F)(F)F)cc3)cn12` [BHN-129, 3-[(2,2,2-trifluoroethoxy)methyl]-6-[4-(trifluoromethoxy)phenyl][1,2,4]triazolo[4,3-a]pyridine], for which the inhibition at 1 µM came to 48.4%.

With `OCc1nnc2ccc(-c3ccc(OC(F)(F)F)cc3)cn12` [BHN-130, {6-[4-(trifluoromethoxy)phenyl][1,2,4]triazolo[4,3-a]pyridin-3-yl}methanol], the inhibition at 1 µM was 21.9%.

For `COc1ncc(-c2cc(OC(F)(F)F)ccc2-c2ccc3nnc(C(F)(F)F)n3c2)cn1` [BHN-131, 6-[2-(2-methoxypyrimidin-5-yl)-4-(trifluoromethoxy)phenyl]-3-(trifluoromethyl)[1,2,4]triazolo[4,3-a]pyridine], the inhibition at 1 µM stood at 18.5%.

Consider `FC(F)(F)Oc1ccc(-c2ccc3nnc(C(F)(F)F)n3c2)c(-c2cccnc2)c1` [BHN-132, 6-[2-(pyridin-3-yl)-4-(trifluoromethoxy)phenyl]-3-(trifluoromethyl)[1,2,4]triazolo[4,3-a]pyridine], for which the inhibition at 1 µM came to 29.4%.

Take `Nc1cc(-c2ccc3nnc(C(F)(F)F)n3c2)ccc1OC(F)(F)F` [BHN-134, 2-(trifluoromethoxy)-5-[3-(trifluoromethyl)[1,2,4]triazolo[4,3-a]pyridin-6-yl]aniline]: the inhibition at 1 µM was found to be 27.8%.

Take `N#CC1(c2ccc(-c3ccc4nnc(C(F)(F)F)n4c3)cc2)CCCC1` [BHN-135, 1-{4-[3-(trifluoromethyl)[1,2,4]triazolo[4,3-a]pyridin-6-yl]phenyl}cyclopentanecarbonitrile]: the inhibition at 1 µM was found to be 49.2%.

`COCC(F)(F)c1nnc2ccc(-c3ccc(Oc4ccccc4)cc3)cn12` [BHN-136, 3-(1,1-difluoro-2-methoxyethyl)-6-(4-phenoxyphenyl)[1,2,4]triazolo[4,3-a]pyridine]: the inhibition at 1 µM stood at 45%.

As to `COCC(F)(F)c1nnc2ccc(-c3ccc(Oc4ccc(Cl)cc4)cc3)cn12` [BHN-137, 6-[4-(4-chlorophenoxy)phenyl]-3-(1,1-difluoro-2-methoxyethyl)[1,2,4]triazolo[4,3-a]pyridine], the inhibition at 1 µM was determined as 48.2%.

Still in this experiment, the particulars now being: compound at 10 μM; HEK293 cells expressing hNav1.5; late INa generated with 10 μM Tefluthrin (or 50 nM ATX II); read-out: LateINa_10 uM (percent block of late INa).
Take `FC(F)(F)Oc1ccc(-c2ccc3nnc(C(F)(F)F)n3c2)c2cccnc12` [BHN-108, 8-(trifluoromethoxy)-5-[3-(trifluoromethyl)[1,2,4]triazolo[4,3-a]pyridin-6-yl]quinoline]: the inhibition at 10 µM worked out at 63.1%.
